Test [1] addresses T1, full-length beta-Catenin (Uniprot ID P35222) (Homo sapiens, UniProt P35222).
T1 construct: 10 nM full-length beta-Catenin (Uniprot ID P35222)
T1 sequence (P35222 1-781): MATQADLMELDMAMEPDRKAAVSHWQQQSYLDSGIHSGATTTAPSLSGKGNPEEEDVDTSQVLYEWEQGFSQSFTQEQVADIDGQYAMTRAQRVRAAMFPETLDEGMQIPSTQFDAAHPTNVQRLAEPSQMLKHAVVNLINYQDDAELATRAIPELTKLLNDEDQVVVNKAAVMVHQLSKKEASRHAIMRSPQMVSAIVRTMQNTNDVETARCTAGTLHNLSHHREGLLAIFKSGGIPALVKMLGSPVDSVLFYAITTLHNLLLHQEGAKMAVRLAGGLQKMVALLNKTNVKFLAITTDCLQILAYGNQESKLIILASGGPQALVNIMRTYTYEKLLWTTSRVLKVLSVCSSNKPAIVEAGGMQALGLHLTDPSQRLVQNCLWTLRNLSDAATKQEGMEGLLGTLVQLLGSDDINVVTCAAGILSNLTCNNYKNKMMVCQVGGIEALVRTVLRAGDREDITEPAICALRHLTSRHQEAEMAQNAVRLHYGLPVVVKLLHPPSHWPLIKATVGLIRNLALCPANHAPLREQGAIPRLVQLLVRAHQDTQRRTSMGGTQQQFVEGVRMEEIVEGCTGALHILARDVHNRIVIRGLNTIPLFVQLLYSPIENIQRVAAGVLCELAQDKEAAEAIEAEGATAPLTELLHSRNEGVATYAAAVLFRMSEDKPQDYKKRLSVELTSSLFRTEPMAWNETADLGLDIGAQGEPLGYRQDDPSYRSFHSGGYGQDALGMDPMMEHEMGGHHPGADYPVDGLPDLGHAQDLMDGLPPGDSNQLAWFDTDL
Description: Fluorescence polarization IC50 (beta-catenin / 5FAM-TCF4 10-53 competition). Format: binding. The settings on record: fluorescence polarization; read-out: beta-Catenin FP IC50.

The target in test [2] is T2, beta-catenin/TCF4 engagement (Homo sapiens, UniProt P35222).
T2 construct: expressed in transfected cells; host or cells: HEK293
T2 sequence (P35222 1-781): T1 sequence (P35222 1-781)
Description: Nano-BRET target engagement assay (B-cat-Halo & TCF4-Luc in HEK293 cells). The test is classed as cell-based. Particulars: read-out: NanoBRET Abs IC50. For orientation: BRET reads energy transfer from a luciferase to a nearby fluorophore.

Where two headings read alike, the source gives them in different places. Some results are limits rather than exact numbers.

Usually IC50 stands for the concentration at which inhibition is half-maximal. As to `CC(=O)N1CCC[C@]12CC=CCCCC1(CCCC=CCCCOC(=O)N3CC[C@@](C(=O)N[C@@H](Cc4ccccc4C(F)(F)F)C(=O)N[C@@H](Cc4csc5ccccc45)C(=O)N[C@@H](CO)C(N)=O)(C3)NC(=O)[C@H](CC(C)C)NC(=O)[C@H](Cc3ccccc3)NC(=O)[C@H](C)NC(=O)[C@H](C)NC(=O)[C@H](Cc3ccccc3C(=O)O)NC(=O)[C@H](CC(=O)O)NC1=O)NC(=O)[C@H](CC(C)(C)C)NC(=O)[C@H](CC(=O)O)NC2=O` (single isomer, unassigned) [I-1661, Ac-PL3-Asp-Npg-B5-Asp-2COOHF-Ala-Ala-Phe-Leu-PyrS2-2F3MeF-BztA-Ser-NH2], the IC50 in test [1] worked out at 0.07 µM; in test [2] (absolute IC50), 8.3 µM.

For the compound `CC(=O)N1CCC[C@]12CC=CCCCC1(CCCC=CCCCOC(=O)N3CC[C@@](C(=O)N[C@@H](Cc4ccsc4)C(=O)N[C@@H](Cc4csc5ccccc45)C(=O)N[C@@H](CO)C(N)=O)(C3)NC(=O)[C@H](Cc3ccccc3)NC(=O)[C@H](Cc3ccccc3)NC(=O)[C@H](C)NC(=O)[C@H](C)NC(=O)[C@H](Cc3ccccc3C(=O)O)NC(=O)[C@H](CC(=O)O)NC1=O)NC(=O)[C@H](CC(C)(C)C)NC(=O)[C@H](CC(=O)O)NC2=O` (single isomer, unassigned) [I-1664, Ac-PL3-Asp-Npg-B5-Asp-2COOHF-Ala-Ala-Phe-Phe-PyrS2-3Thi-BztA-Ser-NH2], the IC50 was 0.022 µM in test [1] and 8 µM in test [2] (absolute IC50).

Take `CC(=O)N1CCC[C@]12CC=CCCCC1(CCCC=CCCCOC(=O)N3CC[C@@](C(=O)N[C@@H](Cc4ccsc4)C(=O)N[C@@H](Cc4csc5ccccc45)C(=O)N[C@@H](CO)C(N)=O)(C3)NC(=O)[C@H](Cc3ccccc3)NC(=O)[C@H](Cc3ccccc3)NC(=O)[C@H](C)NC(=O)[C@H](C)NC(=O)[C@H](Cc3ccccc3C(=O)O)NC(=O)[C@H](CC(=O)O)NC1=O)NC(=O)[C@H](CC(C)(C)C)NC(=O)[C@H](CC(=O)O)NC2=O` (single isomer, unassigned) [I-1665, Ac-PL3-Asp-Npg-B5-Asp-2COOHF-Ala-Ala-Phe-Phe-PyrS2-3Thi-BztA-Ser-NH2]: the values for the IC50 in test [1] and in test [2] (absolute IC50) were 0.017 µM and 9.7 µM, respectively.

As to `CC(=O)N1CCC[C@]12CC=CCCCC1(CCCC=CCCCOC(=O)N3CC[C@@](C(=O)N[C@@H](Cc4ccsc4)C(=O)N[C@@H](Cc4csc5ccccc45)C(=O)N[C@@H](CO)C(N)=O)(C3)NC(=O)[C@H](CC(C)C)NC(=O)[C@H](Cc3ccccc3)NC(=O)[C@H](C)NC(=O)[C@H](C)NC(=O)[C@H](Cc3ccccc3C(=O)O)NC(=O)[C@H](CC(=O)O)NC1=O)NC(=O)[C@H](CC(C)(C)C)NC(=O)[C@H](CC(=O)O)NC2=O` (single isomer, unassigned) [I-1666, Ac-PL3-Asp-Npg-B5-Asp-2COOHF-Ala-Ala-Phe-Leu-PyrS2-3Thi-BztA-Ser-NH2], the values for the IC50 in test [1] and in test [2] (absolute IC50) were 0.015 µM and 6.5 µM, respectively.

As for `CC(=O)N1CCC[C@]12CC=CCCCC1(CCCC=CCCCOC(=O)N3CC[C@@](C(=O)N[C@@H](Cc4ccsc4)C(=O)N[C@@H](Cc4csc5ccccc45)C(=O)N[C@H](CO)[C@@H](C)O)(C3)NC(=O)[C@H](Cc3ccccc3)NC(=O)[C@H](Cc3ccccc3)NC(=O)[C@H](C)NC(=O)[C@H](C)NC(=O)[C@H](Cc3ccccc3C(=O)O)NC(=O)[C@H](CC(=O)O)NC1=O)NC(=O)[C@H](CC(C)(C)C)NC(=O)[C@H](CC(=O)O)NC2=O` (single isomer, unassigned) [I-1668, Ac-PL3-Asp-Npg-B5-Asp-2COOHF-Ala-Ala-Phe-Phe-PyrS2-3Thi-BztA-Thro1], the IC50 in test [1] is 0.029 µM; in test [2] (absolute IC50) it was 16.4 µM.

On to `CC(=O)N1CCC[C@]12CC=CCCCC1(CCCC=CCCCOC(=O)N3CC[C@@](C(=O)N[C@@H](Cc4ccsc4)C(=O)N[C@@H](Cc4csc5ccccc45)C(=O)N[C@H](CO)[C@@H](C)O)(C3)NC(=O)[C@H](Cc3ccccc3)NC(=O)[C@H](Cc3ccccc3)NC(=O)[C@H](C)NC(=O)[C@H](C)NC(=O)[C@H](Cc3ccccc3C(=O)O)NC(=O)[C@H](CC(=O)O)NC1=O)NC(=O)[C@H](CC(C)(C)C)NC(=O)[C@H](CC(=O)O)NC2=O` (single isomer, unassigned) [I-1669, Ac-PL3-Asp-Npg-B5-Asp-2COOHF-Ala-Ala-Phe-Phe-PyrS2-3Thi-BztA-Thro1], for which the values for the IC50 in test [1] and in test [2] (absolute IC50) were 0.03 µM and 11.8 µM, respectively.

As for `CC(=O)N1CCC[C@]12CC=CCCCC1(CCCC=CCCCOC(=O)N3CC[C@@](C(=O)N[C@@H](Cc4ccsc4)C(=O)N[C@@H](Cc4csc5ccccc45)C(=O)N[C@H](CO)[C@@H](C)O)(C3)NC(=O)[C@H](CC(C)C)NC(=O)[C@H](Cc3ccccc3)NC(=O)[C@H](C)NC(=O)[C@H](C)NC(=O)[C@H](Cc3ccccc3C(=O)O)NC(=O)[C@H](CC(=O)O)NC1=O)NC(=O)[C@H](CC(C)(C)C)NC(=O)[C@H](CC(=O)O)NC2=O` (single isomer, unassigned) [I-1670, Ac-PL3-Asp-Npg-B5-Asp-2COOHF-Ala-Ala-Phe-Leu-PyrS2-3Thi-BztA-Thro1], the IC50 amounted to 0.011 µM in test [1] and 7.9 µM in test [2] (absolute IC50).

For the compound `CC(=O)N1CCC[C@]12CC=CCCCC1(CCCC=CCCCOC(=O)N3CC[C@@](C(=O)N[C@@H](Cc4ccsc4)C(=O)N[C@@H](Cc4csc5ccccc45)C(=O)N[C@@H](CCC(N)=O)C(N)=O)(C3)NC(=O)[C@H](CC(C)C)NC(=O)C(Cc3cccc(C(=O)Oc4ccccc4)c3)NC(=O)[C@H](C)NC(=O)[C@H](C)NC(=O)[C@H](CN(CC(=O)O)CC(F)(F)F)NC(=O)[C@H](CC(=O)O)NC1=O)NC(=O)[C@H](CC(C)(C)C)NC(=O)[C@H](CC(=O)O)NC2=O` (single isomer, unassigned) [I-2151, Ac-PL3-Asp-Npg-B5-Asp-TfeGA-Ala-Ala-3CO2PhF-Leu-PyrS2-3Thi-BztA-Gln-NH2], the IC50 was 0.058 µM in test [1] and 14.6 µM in test [2].

On to `CC(=O)N1CCC[C@]12CC=CCCCC1(CCCC=CCCCCCC[C@@](C)(C(=O)N[C@@H](Cc3ccccc3)C(=O)N[C@@H](Cc3csc4ccccc34)C(=O)N[C@@H](CCC(N)=O)C(N)=O)NC(=O)[C@H](CCO)NC(=O)[C@H](Cc3ccccc3)NC(=O)[C@H](C)NC(=O)[C@H](C)NC(=O)[C@H](CCC(=O)O)NC(=O)[C@H](CC(=O)O)NC1=O)NC(=O)[C@H](CO)NC(=O)[C@H](CC(=O)O)NC2=O` (stereo partly drawn) [I-1529, Ac-PL3-Asp-Ser-B5-Asp-Glu-Ala-Ala-Phe-Hse-S8-Phe-BztA-Gln-NH2], for which the IC50 in test [2] (absolute IC50) is greater than 20 µM.

In the case of `CCN(CC)C(=O)[C@H](CCC(N)=O)NC(=O)[C@H](Cc1csc2ccccc12)NC(=O)[C@H](Cc1ccsc1)NC(=O)[C@]12CCN(C1)C(=O)OCCCC=CCCCC1(CCCC=CC[C@]3(CCCN3C(C)=O)C(=O)N[C@@H](CC(=O)O)C(=O)N[C@@H](CC(C)(C)C)C(=O)N1)C(=O)N[C@@H](CC(=O)O)C(=O)N[C@@H](CN(CC(=O)O)CC(F)(F)F)C(=O)N[C@@H](C)C(=O)N[C@@H](C)C(=O)N[C@@H](Cc1ccccc1)C(=O)N[C@@H](CC(N)=O)C(=O)N2` (stereo partly drawn) [I-1641, Ac-PL3-Asp-Npg-B5-Asp-TfeGA-Ala-Ala-Phe-Asn-PyrS2-3Thi-BztA-Gln-NEt2], the IC50 in test [2] (absolute IC50) was found to be 14.7 µM.

`CC(=O)N1CCC[C@]12CC=CCCCC1(CCCC=CCCCOC(=O)N3CC[C@@](C(=O)N[C@@H](Cc4ccsc4)C(=O)N[C@@H](Cc4csc5ccccc45)C(=O)N[C@@H](CCC(N)=O)C(N)=O)(C3)NC(=O)[C@H](CC(N)=O)NC(=O)[C@H](Cc3ccccc3)NC(=O)[C@H](C)NC(=O)C3(CC3)NC(=O)[C@H]([C@@H](C)O)NC(=O)[C@H](CC(N)=O)NC1=O)NC(=O)[C@H](CC(C)(C)C)NC(=O)[C@H](CC(=O)O)NC2=O` (stereo partly drawn) [I-2492, Ac-PL3-Asp-Npg-B5-Asn-Thr-Cpg-Ala-Phe-Asn-PyrS2-3Thi-BztA-Gln-NH2]: the IC50 in test [2] (absolute IC50) was greater than 20 µM.

Values taken from US20240116985A1, “STAPLED PEPTIDES AND METHODS THEREOF” (priority 2020, published 2024).
